Laboratory results: patent US20150018305A1, “SIRTUIN INDUCER, TISSUE REPAIRING AGENT, HEPATOCYTE GROWTH FACTOR INDUCER, TISSUE HOMEOSTASIS MAINTENANCE AGENT, AND TLR4 AGONIST, HAVING HYALURONIC ACID FRAGMENT AS ACTIVE INGREDIENT” (HYALURONAN RESEARCH INSTITUTE, INC., priority 2012, published 2015)

What was measured:
[1] = test system: Hepatocyte growth factor expression (mRNA); experiment: Induction of hepatocyte growth factor in human epidermal keratinocytes, DNA microarray (Test Example 13); assay type: cell-based; conditions: 10 ng/ml, 24 hours; Cy5, DNA microarray
Procedure: Human epidermal keratinocytes (normal human keratinocytes from a person) were cultured respectively in a culture medium containing 10 ng/ml of four-unit hyaluronic acid fragment (4mer), and a culture medium containing no hyaluronic acid fragments (untreated), for 24 hours. For the culture medium, a serum-free medium for use with normal human keratinocytes, made by DS Pharma Biomedical Co. Ltd. was employed. After culture, the cells were recovered and analyzed with a DNA microarray (DNA chip).

[2] = test system: sirtuin enzymatic activity (sirt1 enzymatic activity); experiment: Sirtuin enzymatic activity in cell solution of human epidermal keratinocytes, CycLex SIRT1/Sir2 Deacetylase Fluorometric Assay Kit (Test Example 2); assay type: cell-based; conditions: 10 ng/ml final concentration; cell crude extract
Procedure: Human epidermal keratinocytes were treated in the same manner as in Test Example 1, except that the final concentration of the hyaluronic acid fragment was 10 ng/ml, the size thereof being four sugar units (4mer), six sugar units (6mer), or 10 sugar units (10mer), while measuring the sirtuin enzymatic activity (sirt1 enzymatic activity) in the cell solution thereof. For purposes of comparison, 10 kDa or 900 kDa hyaluronic acid, and resveratrol, a known sirtuin activator, were likewise tested at 10 ng/ml final concentration. A human sirtuin recombinant protein (recombinant human sirt1) produced through genetic recombination techniques was used as a substance for verification of the measurement system. Sirtuin enzymatic activity in the cell crude extract was measured with the CycLex SIRT1/Sir2 Deacetylase Fluorometric Assay Kit (trade name of CycLex), following the protocol of the kit.

Fluorescent intensity, Hepatocyte growth factor expression in keratinocytes (mRNA) [1]: 200.40
SMILES: CC(=O)N[C@H]1[C@H](O[C@H]2[C@H](O)[C@@H](O)[C@H](O[C@H]3[C@H](O)[C@@H](CO)OC(O)[C@@H]3NC(C)=O)O[C@@H]2C(=O)O)O[C@H](CO)[C@@H](O)[C@@H]1O[C@@H]1O[C@H](C(=O)O)[C@@H](O)[C@H](O)[C@H]1O (some centres unmarked) [4mer, GlcA(-GlcNAc-GlcA)1-GlcNAc]
sirtuin enzymatic activity (sirt1 enzymatic activity) compared with negative control [2]: approximately triple
